According to patent US8959984B2, “Proteome-wide quantification of small molecule binding to cellular target proteins” (priority 2007, dated 2015):
Where two headings read alike, the source gives them in different places.

Assays:
EphB2 [1] = target: T1, EphB2 (Homo sapiens, UniProt P29323); experiment: binding to AX14596 beads (HeLa lysate, SILAC MS)
T1 sequence (P29323 19-1055): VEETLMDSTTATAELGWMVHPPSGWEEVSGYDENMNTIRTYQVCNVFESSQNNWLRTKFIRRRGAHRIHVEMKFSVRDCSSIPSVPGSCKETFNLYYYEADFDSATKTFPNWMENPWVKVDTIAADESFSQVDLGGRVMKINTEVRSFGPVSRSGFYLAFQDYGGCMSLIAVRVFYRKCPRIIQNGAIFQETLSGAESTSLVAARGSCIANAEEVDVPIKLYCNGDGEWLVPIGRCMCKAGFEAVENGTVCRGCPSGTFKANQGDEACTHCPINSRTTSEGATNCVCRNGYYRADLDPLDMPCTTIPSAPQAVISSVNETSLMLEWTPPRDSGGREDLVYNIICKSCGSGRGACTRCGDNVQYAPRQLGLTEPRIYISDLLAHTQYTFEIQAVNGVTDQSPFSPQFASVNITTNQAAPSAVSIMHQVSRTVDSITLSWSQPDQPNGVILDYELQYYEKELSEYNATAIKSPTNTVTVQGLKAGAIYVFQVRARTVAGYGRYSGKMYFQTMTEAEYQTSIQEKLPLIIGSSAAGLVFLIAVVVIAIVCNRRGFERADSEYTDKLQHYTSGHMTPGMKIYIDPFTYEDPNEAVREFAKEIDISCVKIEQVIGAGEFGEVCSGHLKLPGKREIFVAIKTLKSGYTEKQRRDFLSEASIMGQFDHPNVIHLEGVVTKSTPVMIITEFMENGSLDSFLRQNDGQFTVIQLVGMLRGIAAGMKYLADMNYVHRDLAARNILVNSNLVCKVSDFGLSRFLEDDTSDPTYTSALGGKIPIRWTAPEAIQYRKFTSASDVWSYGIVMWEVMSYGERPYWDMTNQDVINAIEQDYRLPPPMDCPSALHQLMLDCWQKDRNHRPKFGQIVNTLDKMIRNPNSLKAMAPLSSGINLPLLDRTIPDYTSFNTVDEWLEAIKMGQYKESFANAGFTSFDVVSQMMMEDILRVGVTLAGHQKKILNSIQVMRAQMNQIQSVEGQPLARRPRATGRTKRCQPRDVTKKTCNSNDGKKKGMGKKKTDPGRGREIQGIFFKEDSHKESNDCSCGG

GSK3B = GSK3B (Homo sapiens, UniProt P49841); experiment: binding to immobilized V16742 (IVA1/IVA2, HeLa lysate, MS)
EphB2 [2] = target: T1, EphB2; experiment: as above
NAMPT = NAMPT (Homo sapiens, UniProt P43490)
MNK1 (MKNK1) = MNK1 (MKNK1) (Homo sapiens, UniProt Q9BUB5)
CDK7 = target: T2, CDK7 (Homo sapiens, UniProt P50613); experiment: binding to immobilized V16742 (IVA1/IVA2, HeLa lysate, MS)
T2 construct: endogenous in cells; host or cells: HeLa S3
T2 sequence (P50613 whole entry): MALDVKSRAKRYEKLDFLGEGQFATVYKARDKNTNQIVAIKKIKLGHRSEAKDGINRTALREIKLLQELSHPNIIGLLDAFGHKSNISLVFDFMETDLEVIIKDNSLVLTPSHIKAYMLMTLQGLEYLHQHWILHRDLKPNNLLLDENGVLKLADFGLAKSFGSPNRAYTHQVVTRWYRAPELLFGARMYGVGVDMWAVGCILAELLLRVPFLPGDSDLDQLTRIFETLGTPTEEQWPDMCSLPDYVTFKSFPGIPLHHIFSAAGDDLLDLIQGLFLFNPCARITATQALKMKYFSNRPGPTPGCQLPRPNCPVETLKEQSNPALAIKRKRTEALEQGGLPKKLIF

MNK1 (MKNK1), sequence (Q9BUB5 whole entry): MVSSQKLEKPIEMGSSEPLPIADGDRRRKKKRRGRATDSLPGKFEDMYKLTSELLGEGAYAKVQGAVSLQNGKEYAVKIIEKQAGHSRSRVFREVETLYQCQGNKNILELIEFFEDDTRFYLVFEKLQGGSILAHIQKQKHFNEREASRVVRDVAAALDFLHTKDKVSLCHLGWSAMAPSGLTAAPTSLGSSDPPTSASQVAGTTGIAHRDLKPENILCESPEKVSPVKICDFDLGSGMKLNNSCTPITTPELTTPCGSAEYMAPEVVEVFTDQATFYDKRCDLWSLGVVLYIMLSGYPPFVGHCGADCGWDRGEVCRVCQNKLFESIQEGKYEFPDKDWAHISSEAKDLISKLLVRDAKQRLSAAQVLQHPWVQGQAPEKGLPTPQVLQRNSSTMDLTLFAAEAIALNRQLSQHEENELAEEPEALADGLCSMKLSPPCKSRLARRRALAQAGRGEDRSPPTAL
GSK3B, sequence (P49841 whole entry): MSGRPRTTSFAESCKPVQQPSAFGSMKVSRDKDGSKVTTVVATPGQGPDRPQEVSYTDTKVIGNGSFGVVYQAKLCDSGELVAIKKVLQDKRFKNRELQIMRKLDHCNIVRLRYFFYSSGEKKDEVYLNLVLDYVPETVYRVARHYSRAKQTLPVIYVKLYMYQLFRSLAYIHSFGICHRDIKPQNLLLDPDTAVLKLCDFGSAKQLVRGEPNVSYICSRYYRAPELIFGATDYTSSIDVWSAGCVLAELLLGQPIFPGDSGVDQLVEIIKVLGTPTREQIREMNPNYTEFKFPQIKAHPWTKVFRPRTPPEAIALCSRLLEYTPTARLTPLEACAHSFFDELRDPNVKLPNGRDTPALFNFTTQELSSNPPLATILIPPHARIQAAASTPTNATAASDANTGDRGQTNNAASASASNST
NAMPT, sequence (P43490 whole entry): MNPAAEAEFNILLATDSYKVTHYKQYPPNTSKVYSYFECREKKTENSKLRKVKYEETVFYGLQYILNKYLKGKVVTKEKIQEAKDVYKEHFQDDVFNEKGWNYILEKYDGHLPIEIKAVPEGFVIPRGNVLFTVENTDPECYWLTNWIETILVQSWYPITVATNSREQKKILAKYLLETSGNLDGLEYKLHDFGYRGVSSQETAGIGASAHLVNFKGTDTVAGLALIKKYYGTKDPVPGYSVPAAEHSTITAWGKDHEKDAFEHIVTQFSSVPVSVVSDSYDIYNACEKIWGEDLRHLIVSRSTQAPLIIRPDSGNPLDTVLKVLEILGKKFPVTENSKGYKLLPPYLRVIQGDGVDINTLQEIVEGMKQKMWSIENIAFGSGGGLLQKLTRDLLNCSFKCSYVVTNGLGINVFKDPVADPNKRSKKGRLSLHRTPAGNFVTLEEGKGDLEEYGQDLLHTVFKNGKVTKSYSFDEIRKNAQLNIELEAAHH

## COc1cc2ncnc(Nc3ccc(F)c(Cl)c3)c2cc1OCCCN [AX14596]
EphB2 [1]
  Ki: 213 µM
  r (3 mg/1 mg lysate): 3.41
  r (5 h/2.5 h inc. time): 1.06
  rAVERAGE (2. inc/1. inc): 0.68
  rAVERAGE (control/1. inc): 0.04

## CC(C)n1c(=O)ccc2cnc(Nc3ccc(OCCN)cc3)nc21 [compound 16742]
GSK3B; EXPERIMENT 1
  Percent bound at 1.87 μM 16742 conc: 12.33%
  Percent bound at 8.74 μM 16742 conc: 51.81%
  Percent bound at 52 μM 16742 conc: 91.30%
GSK3B; EXPERIMENT 1, read-out: Kd
  Kd: 8.44 µM
GSK3B; EXPERIMENT 2
  Percent bound at 1.87 μM 16742 conc: 8.04%
  Percent bound at 8.74 μM 16742 conc: 41.97%
  Percent bound at 52 μM 16742 conc: 88.20%
GSK3B; EXPERIMENT 2, read-out: Kd
  Kd: 11.6 µM
GSK3B; read-out: Kd Avg
  Kd: 10 µM
EphB2 [2]; EXPERIMENT 1
  Percent bound at 1.87 μM 16742 conc: 4.79%
  Percent bound at 8.74 μM 16742 conc: 17.01%
  Percent bound at 52 μM 16742 conc: 66.97%
EphB2 [2]; EXPERIMENT 1, read-out: Kd
  Kd: 30.6 µM
EphB2 [2]; EXPERIMENT 2
  Percent bound at 1.87 μM 16742 conc: 2.86%
  Percent bound at 8.74 μM 16742 conc: 13.05%
  Percent bound at 52 μM 16742 conc: 57.74%
EphB2 [2]; EXPERIMENT 2, read-out: Kd
  Kd: 42.3 µM
EphB2 [2]; read-out: Kd Avg
  Kd: 36.5 µM

## COc1cc2ncnc(Nc3ccc(F)c(Cl)c3)c2cc1OCCCN1CCOCC1 [gefitinib]
NAMPT
  rAVERAGE (10 nM/0 nM Gef.): 0.71
  rAVERAGE (100 nM/0 nM Gef.): 0.74
  rAVERAGE (1000 nM/0 nM Gef.): 0.73
  rAVERAGE (10000 nM/0 nM Gef.): 0.92
MNK1 (MKNK1)
  rAVERAGE (10 nM/0 nM Gef.): 0.76
  rAVERAGE (100 nM/0 nM Gef.): 1.00
  rAVERAGE (1000 nM/0 nM Gef.): 0.73
  rAVERAGE (10000 nM/0 nM Gef.): 0.37

## CC(C)n1c(=O)ccc2cnc(Nc3ccc(OCCN)cc3)nc21 [V16742]
CDK7; Experiment 1, 1.87 μM 16742
  Percent bound at various 16742 conc: 5.76%
CDK7; Experiment 1, 8.74 μM 16742
  Percent bound at various 16742 conc: 22.04%
CDK7; Experiment 1, 52 μM 16742
  Percent bound at various 16742 conc: 53.96%
CDK7; Experiment 1, read-out: Kd
  Kd: 39.8 µM
CDK7; Experiment 2, 1.87 μM 16742
  Percent bound at various 16742 conc: 2.34%
CDK7; Experiment 2, 8.74 μM 16742
  Percent bound at various 16742 conc: 13.18%
CDK7; Experiment 2, 52 μM 16742
  Percent bound at various 16742 conc: 45.57%
CDK7; Experiment 2, read-out: Kd
  Kd: 61.5 µM
CDK7; average of two experiments, read-out: Kd Avg
  Kd: 50.7 µM
